Results as given in ChEMBL document CHEMBL3991601, “The target landscape of clinical kinase drugs” (Science, 2017).
Calls of active or inactive are those of the source.

Key:
[1] = biological target: Myosin light chain kinase, smooth muscle (Homo sapiens, UniProt Q15746)
[2] = biological target: cAMP-dependent protein kinase type II-alpha regulatory subunit (Homo sapiens, UniProt P13861)
[3] = biological target: T1, STE20-related kinase adapter protein alpha (Homo sapiens, UniProt Q7RTN6)
T1 sequence (Q7RTN6 whole entry): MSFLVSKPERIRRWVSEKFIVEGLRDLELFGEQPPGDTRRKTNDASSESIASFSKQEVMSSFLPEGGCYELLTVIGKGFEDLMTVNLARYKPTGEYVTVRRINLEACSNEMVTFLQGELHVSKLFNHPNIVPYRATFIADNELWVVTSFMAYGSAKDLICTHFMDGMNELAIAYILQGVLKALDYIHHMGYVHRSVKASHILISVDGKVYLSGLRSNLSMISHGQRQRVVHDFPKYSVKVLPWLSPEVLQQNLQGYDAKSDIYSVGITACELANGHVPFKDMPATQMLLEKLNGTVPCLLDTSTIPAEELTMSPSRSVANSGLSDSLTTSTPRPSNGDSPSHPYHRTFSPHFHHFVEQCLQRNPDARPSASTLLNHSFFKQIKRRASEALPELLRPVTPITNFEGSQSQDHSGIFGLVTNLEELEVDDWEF

[4] = biological target: Mitogen-activated protein kinase kinase kinase kinase 1 (Homo sapiens, UniProt Q92918)
Chain of Mitogen-activated protein kinase kinase kinase kinase 1 (Q92918 whole entry): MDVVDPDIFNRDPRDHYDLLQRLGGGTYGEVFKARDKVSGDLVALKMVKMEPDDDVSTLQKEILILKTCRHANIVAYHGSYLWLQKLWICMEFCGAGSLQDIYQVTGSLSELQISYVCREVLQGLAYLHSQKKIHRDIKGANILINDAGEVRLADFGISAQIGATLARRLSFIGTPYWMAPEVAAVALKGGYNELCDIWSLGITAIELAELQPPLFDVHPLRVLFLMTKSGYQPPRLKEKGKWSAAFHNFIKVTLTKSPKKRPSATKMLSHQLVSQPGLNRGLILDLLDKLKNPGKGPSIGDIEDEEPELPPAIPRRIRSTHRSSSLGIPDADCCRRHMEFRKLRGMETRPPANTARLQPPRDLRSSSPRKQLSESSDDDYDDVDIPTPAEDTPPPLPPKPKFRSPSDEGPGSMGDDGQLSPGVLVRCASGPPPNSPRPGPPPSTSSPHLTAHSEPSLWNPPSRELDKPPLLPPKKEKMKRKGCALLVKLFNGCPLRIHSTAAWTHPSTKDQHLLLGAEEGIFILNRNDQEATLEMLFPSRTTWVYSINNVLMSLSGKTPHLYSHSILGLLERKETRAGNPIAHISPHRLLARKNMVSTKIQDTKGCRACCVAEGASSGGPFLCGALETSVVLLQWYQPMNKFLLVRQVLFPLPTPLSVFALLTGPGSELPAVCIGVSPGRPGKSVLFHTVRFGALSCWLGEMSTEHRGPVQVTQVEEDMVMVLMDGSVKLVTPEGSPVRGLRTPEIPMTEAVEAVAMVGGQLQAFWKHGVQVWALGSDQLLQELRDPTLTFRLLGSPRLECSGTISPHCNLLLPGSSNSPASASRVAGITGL

Activated CDC42 kinase 1 = Activated CDC42 kinase 1 (Homo sapiens, UniProt Q07912)
[5] = biological target: T2, Serine/threonine-protein kinase TBK1 (Homo sapiens, UniProt Q9UHD2)
T2 sequence (Q9UHD2 whole entry): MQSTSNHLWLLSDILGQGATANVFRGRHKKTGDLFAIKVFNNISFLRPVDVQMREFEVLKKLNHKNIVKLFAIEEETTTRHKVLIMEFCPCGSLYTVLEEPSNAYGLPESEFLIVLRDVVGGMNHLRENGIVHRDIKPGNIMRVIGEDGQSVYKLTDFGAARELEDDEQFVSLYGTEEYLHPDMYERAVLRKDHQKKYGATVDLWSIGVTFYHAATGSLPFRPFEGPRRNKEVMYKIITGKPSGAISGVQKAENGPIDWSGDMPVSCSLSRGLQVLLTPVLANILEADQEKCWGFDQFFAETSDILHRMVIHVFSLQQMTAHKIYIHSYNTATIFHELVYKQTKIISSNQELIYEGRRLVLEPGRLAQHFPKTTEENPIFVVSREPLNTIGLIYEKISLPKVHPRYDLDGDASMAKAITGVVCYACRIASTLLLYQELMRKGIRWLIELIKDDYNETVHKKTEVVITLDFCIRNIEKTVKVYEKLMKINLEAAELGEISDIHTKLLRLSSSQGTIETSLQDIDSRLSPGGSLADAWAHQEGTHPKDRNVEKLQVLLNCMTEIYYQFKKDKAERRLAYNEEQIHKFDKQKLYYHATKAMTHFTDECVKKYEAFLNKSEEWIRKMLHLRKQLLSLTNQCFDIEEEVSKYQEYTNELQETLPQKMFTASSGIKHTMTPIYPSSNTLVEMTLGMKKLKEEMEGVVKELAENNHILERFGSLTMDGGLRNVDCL

[6] = biological target: Structural maintenance of chromosomes protein 2 (Homo sapiens, UniProt O95347)
Chain of Structural maintenance of chromosomes protein 2 (O95347 whole entry): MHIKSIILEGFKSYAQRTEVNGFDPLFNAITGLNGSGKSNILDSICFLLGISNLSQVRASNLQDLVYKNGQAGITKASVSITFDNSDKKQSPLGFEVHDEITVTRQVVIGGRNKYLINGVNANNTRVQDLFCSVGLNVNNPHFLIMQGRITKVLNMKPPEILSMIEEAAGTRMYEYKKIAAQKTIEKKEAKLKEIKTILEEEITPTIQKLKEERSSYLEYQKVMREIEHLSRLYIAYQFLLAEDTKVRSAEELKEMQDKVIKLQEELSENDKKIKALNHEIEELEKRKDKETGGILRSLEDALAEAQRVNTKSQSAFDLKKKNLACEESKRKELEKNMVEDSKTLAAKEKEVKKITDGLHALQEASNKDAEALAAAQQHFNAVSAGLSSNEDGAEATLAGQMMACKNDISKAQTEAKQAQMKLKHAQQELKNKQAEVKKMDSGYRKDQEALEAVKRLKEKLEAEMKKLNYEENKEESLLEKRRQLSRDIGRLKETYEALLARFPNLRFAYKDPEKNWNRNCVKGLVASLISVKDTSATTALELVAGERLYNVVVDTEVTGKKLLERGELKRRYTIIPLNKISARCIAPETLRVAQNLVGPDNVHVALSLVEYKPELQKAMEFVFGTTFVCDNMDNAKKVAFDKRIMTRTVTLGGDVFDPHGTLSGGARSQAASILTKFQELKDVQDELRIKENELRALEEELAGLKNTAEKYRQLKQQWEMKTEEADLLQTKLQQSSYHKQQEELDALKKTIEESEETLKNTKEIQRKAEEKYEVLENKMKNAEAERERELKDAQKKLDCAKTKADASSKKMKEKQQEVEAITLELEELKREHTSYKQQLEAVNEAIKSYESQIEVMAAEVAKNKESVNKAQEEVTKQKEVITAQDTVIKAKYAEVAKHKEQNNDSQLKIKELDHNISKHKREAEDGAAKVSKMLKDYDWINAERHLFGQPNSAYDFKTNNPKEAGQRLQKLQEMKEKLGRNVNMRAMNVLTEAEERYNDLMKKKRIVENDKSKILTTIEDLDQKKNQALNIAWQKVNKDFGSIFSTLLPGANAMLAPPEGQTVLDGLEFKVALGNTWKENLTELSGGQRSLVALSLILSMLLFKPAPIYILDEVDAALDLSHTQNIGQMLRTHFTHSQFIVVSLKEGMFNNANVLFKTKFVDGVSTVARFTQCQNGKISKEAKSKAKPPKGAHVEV

[7] = biological target: T3, Ras-related protein Rab-10 (Homo sapiens, UniProt P61026)
T3 sequence (P61026 whole entry): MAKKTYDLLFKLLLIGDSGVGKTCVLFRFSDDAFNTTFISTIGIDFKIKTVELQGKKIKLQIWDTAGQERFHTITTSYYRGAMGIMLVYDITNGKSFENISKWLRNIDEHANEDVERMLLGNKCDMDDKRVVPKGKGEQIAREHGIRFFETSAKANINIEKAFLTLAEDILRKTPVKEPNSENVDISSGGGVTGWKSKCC

[8] = biological target: Cyclin-dependent kinase 3 (Homo sapiens, UniProt Q00526)
Chain of Cyclin-dependent kinase 3 (Q00526 whole entry): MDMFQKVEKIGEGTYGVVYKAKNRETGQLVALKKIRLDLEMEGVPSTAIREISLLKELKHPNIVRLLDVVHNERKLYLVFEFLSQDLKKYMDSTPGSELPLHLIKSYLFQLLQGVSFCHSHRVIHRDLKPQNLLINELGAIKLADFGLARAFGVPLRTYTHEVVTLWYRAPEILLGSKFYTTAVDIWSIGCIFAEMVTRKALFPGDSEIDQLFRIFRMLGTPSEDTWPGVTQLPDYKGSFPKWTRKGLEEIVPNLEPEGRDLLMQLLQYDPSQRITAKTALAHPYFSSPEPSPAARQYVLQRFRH

[9] = biological target: 26S proteasome regulatory subunit 6B (Homo sapiens, UniProt P43686)
Chain of 26S proteasome regulatory subunit 6B (P43686 whole entry): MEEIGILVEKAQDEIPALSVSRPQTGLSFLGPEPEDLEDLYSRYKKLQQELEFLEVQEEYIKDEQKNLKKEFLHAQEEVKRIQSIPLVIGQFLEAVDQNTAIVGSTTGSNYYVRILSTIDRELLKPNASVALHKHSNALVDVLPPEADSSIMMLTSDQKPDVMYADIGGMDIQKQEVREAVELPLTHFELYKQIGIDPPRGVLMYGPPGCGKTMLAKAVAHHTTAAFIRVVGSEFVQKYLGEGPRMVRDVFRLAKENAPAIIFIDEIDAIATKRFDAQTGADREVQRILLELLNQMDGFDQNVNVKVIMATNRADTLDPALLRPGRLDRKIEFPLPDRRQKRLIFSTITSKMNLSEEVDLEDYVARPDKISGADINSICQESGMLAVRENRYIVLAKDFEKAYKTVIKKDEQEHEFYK

[10] = biological target: T4, Uncharacterized protein FLJ45252 (Homo sapiens, UniProt Q6ZSR9); conditions: read-out: Kd apparent; k-562, colo 205, sk-n-be(2) and mv-4-11
T4 sequence (Q6ZSR9 whole entry): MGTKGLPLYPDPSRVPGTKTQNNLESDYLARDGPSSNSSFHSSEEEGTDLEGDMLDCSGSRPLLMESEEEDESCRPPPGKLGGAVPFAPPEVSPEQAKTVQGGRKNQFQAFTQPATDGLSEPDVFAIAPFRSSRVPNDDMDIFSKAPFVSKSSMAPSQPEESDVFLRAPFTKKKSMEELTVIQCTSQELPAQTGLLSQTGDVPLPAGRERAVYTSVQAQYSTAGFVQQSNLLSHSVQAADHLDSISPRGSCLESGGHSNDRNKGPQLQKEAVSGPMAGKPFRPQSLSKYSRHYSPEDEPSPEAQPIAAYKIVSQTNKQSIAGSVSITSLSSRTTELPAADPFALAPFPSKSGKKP

Scaffold protein ILK = biological target: T5, Scaffold protein ILK (Homo sapiens, UniProt Q13418)
T5 sequence (Q13418 whole entry): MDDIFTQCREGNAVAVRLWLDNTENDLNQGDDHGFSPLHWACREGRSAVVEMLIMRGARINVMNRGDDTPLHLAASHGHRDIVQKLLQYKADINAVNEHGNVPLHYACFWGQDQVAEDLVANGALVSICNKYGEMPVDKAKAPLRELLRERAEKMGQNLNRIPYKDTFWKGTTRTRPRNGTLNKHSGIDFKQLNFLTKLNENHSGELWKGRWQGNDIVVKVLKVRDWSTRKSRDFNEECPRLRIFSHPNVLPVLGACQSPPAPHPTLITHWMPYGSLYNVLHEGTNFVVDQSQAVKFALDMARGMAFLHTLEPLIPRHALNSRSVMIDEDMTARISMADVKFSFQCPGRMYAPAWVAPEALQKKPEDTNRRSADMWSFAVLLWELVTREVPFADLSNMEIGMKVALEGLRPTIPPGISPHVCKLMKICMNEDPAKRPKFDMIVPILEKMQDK
Also: in the data inactive means no Kd found up to 30 µM.

Chain of Myosin light chain kinase, smooth muscle (Q15746 whole entry): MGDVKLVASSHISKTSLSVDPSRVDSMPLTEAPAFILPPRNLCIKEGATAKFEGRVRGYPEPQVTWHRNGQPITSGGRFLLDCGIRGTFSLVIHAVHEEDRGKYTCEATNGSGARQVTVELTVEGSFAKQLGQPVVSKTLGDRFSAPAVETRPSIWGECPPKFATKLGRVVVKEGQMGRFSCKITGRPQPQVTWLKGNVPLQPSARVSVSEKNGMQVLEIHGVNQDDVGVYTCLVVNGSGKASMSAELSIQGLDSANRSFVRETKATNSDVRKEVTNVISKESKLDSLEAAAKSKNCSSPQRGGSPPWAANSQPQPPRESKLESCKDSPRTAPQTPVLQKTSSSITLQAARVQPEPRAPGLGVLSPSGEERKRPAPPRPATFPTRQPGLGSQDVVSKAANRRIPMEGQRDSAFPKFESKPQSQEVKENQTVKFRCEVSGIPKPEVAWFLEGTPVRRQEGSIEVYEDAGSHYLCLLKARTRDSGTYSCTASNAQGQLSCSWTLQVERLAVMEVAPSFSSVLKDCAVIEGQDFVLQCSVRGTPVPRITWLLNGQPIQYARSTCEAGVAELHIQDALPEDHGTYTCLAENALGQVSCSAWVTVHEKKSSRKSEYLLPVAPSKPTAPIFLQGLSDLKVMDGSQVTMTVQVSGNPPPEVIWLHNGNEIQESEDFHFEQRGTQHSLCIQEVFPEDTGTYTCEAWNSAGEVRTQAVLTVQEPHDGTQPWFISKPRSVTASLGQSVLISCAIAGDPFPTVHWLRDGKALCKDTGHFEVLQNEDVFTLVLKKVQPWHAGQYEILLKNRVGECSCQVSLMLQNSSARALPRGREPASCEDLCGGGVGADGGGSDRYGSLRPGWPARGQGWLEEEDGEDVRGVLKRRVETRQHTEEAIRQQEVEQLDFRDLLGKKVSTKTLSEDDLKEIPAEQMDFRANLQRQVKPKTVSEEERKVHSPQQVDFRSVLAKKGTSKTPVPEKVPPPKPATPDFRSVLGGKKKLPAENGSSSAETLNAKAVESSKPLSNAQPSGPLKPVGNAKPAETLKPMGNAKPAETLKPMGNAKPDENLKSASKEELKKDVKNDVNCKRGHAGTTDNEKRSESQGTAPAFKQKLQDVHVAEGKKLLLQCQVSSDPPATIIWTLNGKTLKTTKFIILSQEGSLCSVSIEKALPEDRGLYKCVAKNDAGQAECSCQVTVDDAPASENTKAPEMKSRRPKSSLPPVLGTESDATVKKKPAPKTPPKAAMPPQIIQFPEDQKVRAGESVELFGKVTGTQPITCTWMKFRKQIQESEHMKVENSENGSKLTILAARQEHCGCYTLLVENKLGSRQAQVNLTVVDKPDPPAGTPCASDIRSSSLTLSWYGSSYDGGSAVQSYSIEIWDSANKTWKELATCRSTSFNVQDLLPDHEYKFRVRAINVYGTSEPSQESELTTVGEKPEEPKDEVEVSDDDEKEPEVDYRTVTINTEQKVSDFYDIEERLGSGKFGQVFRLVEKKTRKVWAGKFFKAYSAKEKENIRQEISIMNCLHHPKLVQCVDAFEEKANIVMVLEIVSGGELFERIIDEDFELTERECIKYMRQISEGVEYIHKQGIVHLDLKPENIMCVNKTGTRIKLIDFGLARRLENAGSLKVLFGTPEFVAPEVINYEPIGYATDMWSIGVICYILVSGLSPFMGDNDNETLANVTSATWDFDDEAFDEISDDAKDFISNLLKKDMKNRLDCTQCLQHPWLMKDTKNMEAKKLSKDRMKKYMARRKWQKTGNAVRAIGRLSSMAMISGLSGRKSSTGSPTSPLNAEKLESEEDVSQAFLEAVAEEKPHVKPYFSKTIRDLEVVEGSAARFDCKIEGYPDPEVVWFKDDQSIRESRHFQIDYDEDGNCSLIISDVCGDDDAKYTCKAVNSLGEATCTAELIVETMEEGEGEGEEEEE
Chain of cAMP-dependent protein kinase type II-alpha regulatory subunit (P13861 whole entry): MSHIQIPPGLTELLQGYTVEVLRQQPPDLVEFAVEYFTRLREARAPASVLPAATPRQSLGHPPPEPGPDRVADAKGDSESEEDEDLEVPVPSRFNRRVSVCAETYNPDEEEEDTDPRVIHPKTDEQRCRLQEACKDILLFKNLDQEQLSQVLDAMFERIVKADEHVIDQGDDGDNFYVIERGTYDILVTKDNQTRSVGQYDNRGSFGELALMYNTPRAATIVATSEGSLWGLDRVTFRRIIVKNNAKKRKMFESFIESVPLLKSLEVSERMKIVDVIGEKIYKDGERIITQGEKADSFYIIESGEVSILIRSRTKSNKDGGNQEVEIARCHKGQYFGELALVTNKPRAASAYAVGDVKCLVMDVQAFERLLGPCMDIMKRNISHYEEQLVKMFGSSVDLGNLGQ

SMILES	Kd [1]	Kd [2]	Kd [3]	Kd [4]	Kd (Activated CDC42 kinase 1)	Kd [5]	Kd [6]	Kd [7]	Kd [8]	Kd [9]	Kd [10]	Kd (Scaffold protein ILK)
Cc1csc(-c2nnc(Nc3ccc(Oc4ncccc4-c4ccnc(N)n4)cc3)c3ccccc23)c1 [AMG-900]	> 30 µM (inactive)	> 30 µM (inactive)	> 30 µM (inactive)	> 30 µM (inactive)	> 30 µM (inactive)	> 30 µM (inactive)	> 30 µM (inactive)	> 30 µM (inactive)	> 30 µM (inactive)	> 30 µM (inactive)	3.56 µM (active)	
NC(=O)Nc1cc(-c2cccc(F)c2)sc1C(=O)N[C@H]1CCCNC1 [AZD-7762]	> 30 µM (inactive)	> 30 µM (inactive)	> 30 µM (inactive)		1.09 µM (active)	> 30 µM (inactive)	> 30 µM (inactive)	> 30 µM (inactive)	0.139 µM (active)	> 30 µM (inactive)	0.12 µM (active)	> 30 µM (inactive)
COc1c(OCCCN2CCOCC2)ccc2c1N=C(NC(=O)c1cnc(N)nc1)N1CCN=C21 [COPANLISIB]	> 30 µM (inactive)	> 30 µM (inactive)	> 30 µM (inactive)	> 30 µM (inactive)	> 30 µM (inactive)	> 30 µM (inactive)	> 30 µM (inactive)	> 30 µM (inactive)	> 30 µM (inactive)	> 30 µM (inactive)		> 30 µM (inactive)
O=C(Nc1nc2cccc(-c3ccc(CN4CCS(=O)(=O)CC4)cc3)n2n1)C1CC1 [FILGOTINIB]	> 30 µM (inactive)	> 30 µM (inactive)	> 30 µM (inactive)	> 30 µM (inactive)	> 30 µM (inactive)	> 30 µM (inactive)	> 30 µM (inactive)	> 30 µM (inactive)	> 30 µM (inactive)	> 30 µM (inactive)		> 30 µM (inactive)
CCn1cc(-c2ccnc3[nH]c(-c4cccc(CN(C)C)c4)cc23)c(-c2ccc(NC(=O)N(C)C)cc2)n1 [GSK-1070916]	> 30 µM (inactive)	> 30 µM (inactive)	> 30 µM (inactive)	> 30 µM (inactive)	> 30 µM (inactive)	> 30 µM (inactive)	> 30 µM (inactive)	> 30 µM (inactive)	> 30 µM (inactive)	> 30 µM (inactive)		> 30 µM (inactive)
CNC(=O)c1cccc2cc(Oc3ccnc4cc(OCC5(N)CC5)c(OC)cc34)ccc12 [LUCITANIB]		> 30 µM (inactive)	> 30 µM (inactive)	> 30 µM (inactive)	> 30 µM (inactive)	> 30 µM (inactive)	> 30 µM (inactive)	> 30 µM (inactive)	> 30 µM (inactive)	> 30 µM (inactive)	> 30 µM (inactive)	> 30 µM (inactive)
CNC(=O)c1nn(C)c2c1C(C)(C)Cc1cnc(Nc3ccc(N4CCN(C)CC4)cc3)nc1-2 [MILCICLIB]	> 30 µM (inactive)	> 30 µM (inactive)	> 30 µM (inactive)	0.212 µM (active)	0.9 µM (active)	2.09 µM (active)	> 30 µM (inactive)	> 30 µM (inactive)	> 30 µM (inactive)	> 30 µM (inactive)		> 30 µM (inactive)
N#CC1(c2ccc(NC(=O)c3cccnc3NCc3ccncc3)cc2)CCCC1 [RIVOCERANIB]	> 30 µM (inactive)	> 30 µM (inactive)	> 30 µM (inactive)	> 30 µM (inactive)	> 30 µM (inactive)	> 30 µM (inactive)	> 30 µM (inactive)	> 30 µM (inactive)		> 30 µM (inactive)	> 30 µM (inactive)	> 30 µM (inactive)
Cn1cc(-c2cnn3c(N)c(Br)c([C@@H]4CCCNC4)nc23)cn1 [SCH-900776]	> 30 µM (inactive)	> 30 µM (inactive)	> 30 µM (inactive)	> 30 µM (inactive)	> 30 µM (inactive)	> 30 µM (inactive)	> 30 µM (inactive)	> 30 µM (inactive)	> 30 µM (inactive)	0.005 µM	> 30 µM (inactive)	
CO[C@H]1C[C@@H]2CC[C@@H](C)[C@@](O)(O2)C(=O)C(=O)N2CCCC[C@H]2C(=O)O[C@H]([C@H](C)C[C@@H]2CC[C@@H](O)[C@H](OC)C2)CC(=O)[C@H](C)/C=C(\C)[C@@H](O)[C@@H](OC)C(=O)[C@H](C)C[C@H](C)/C=C/C=C/C=C/1C [SIROLIMUS]	> 30 µM (inactive)	> 30 µM (inactive)	> 30 µM (inactive)	> 30 µM (inactive)	> 30 µM (inactive)	> 30 µM (inactive)	> 30 µM (inactive)	> 30 µM (inactive)		> 30 µM (inactive)	> 30 µM (inactive)	> 30 µM (inactive)
CCS(=O)(=O)c1cccc(-c2cc(C(=O)NC3CCN(C)CC3)c(C)c3[nH]c4ncc(C)cc4c23)c1 [TAK-901]	> 30 µM (inactive)	> 30 µM (inactive)	> 30 µM (inactive)	> 30 µM (inactive)	0.281 µM (active)	2.76 µM (active)	> 30 µM (inactive)	> 30 µM (inactive)	> 30 µM (inactive)	> 30 µM (inactive)		> 30 µM (inactive)
Cn1ncc(Cl)c1-c1cc(C(=O)N[C@H](CN)Cc2ccc(F)c(F)c2)oc1Cl [UPROSERTIB]	> 30 µM (inactive)	> 30 µM (inactive)	> 30 µM (inactive)		> 30 µM (inactive)	> 30 µM (inactive)	> 30 µM (inactive)	> 30 µM (inactive)	> 30 µM (inactive)	> 30 µM (inactive)	> 30 µM (inactive)	> 30 µM (inactive)
CC(C)c1cc(CNc2nc(Nc3cc(C4CC4)[nH]n3)cc(N3CCN(C)CC3)n2)on1 [XL-228]	> 30 µM (inactive)	> 30 µM (inactive)	> 30 µM (inactive)	0.015 µM (active)	0.076 µM (active)	1.12 µM (active)	> 30 µM (inactive)	> 30 µM (inactive)	0.429 µM	> 30 µM (inactive)		> 30 µM (inactive)
